Experimental data reported in US7473679B2, “Treatments employing neuronal exocytosis-inhibiting peptides” (Lipotec, S.A., priority 1999, dated 2009).

Test system: chromaffin cells permeabilized with digitonin
Experiment: Inhibition of the release of catecholamines induced by calcium in permeabilized chromaffin cells
Format: cell-based, bovine
Details: peptide at 1 mM, stimulated with calcium
Method: The neuronal-exocytosis (neurosecretion) inhibiting capabilities of the peptides of the invention became evident through a test that evaluates the strength of said peptides in inhibiting the release of catecholamines induced by calcium in chromaffin cells permeabilized with a detergent [see Example 1.2.1]. Briefly, the chromaffin cell cultures are incubated with epinephrine and norepinephrine containing tritium, are permeabilized with digitonin, and stimulated with calcium, and the amount of radioactivity released by the cells to the extracellular medium, which is a reflection of the exocytosis of said tritium-containing catecholamines, is measured.
This test was performed to verify the neuronal exocytosis-inhibiting capabilities of the peptides synthesized in Example 1.1. In this test, the strength of said peptides is evaluated in inhibiting the release of catecholamines (norepinephrine and epinephrine) induced by calcium in chromaffin cells (obtained from suprarenal bovine glands) permeabilized with the detergent digitonin, in accordance with the method described by Gutiérrez el al. (1995 and 1997).
Briefly, the chromaffin cell cultures are incubated with [^3H]-epinephrine and [^3H]-norepinephrine, are permeabilized with 20 μM digitonin, and stimulated with calcium (10 μM), in the presence of the peptides to be tested (separate or mixed), and the amount of radioactivity released by the cells to the extracellular medium, which is a reflection of the exocytosis of [^3H]-epinephrine and [^3H]-norepinephrine, is measured.

Substance | inhibition of the release of catecholamines (epinephrine and norepinephrine)
SEQ. ID. No. 2: hexapeptide from the amino end of protein SNAP-25 (EEMQRR) | approximately 20%
SEQ. ID. No. 3: peptide with 13 amino acids from the amino end of protein SNAP-25 (ELEEMQRRADQLA) | approximately 35%
SEQ. ID. No. 5: peptide from the carboxyl end of SNAP-25 [SEQ. ID. No. 4], (COOH) peptide (RIMEKADSNKTRIDEANQ) | approximately 40%
SEQ. ID. No. 6: peptide from the carboxyl end of SNAP-25 [SEQ. ID. No. 4], (COOH) peptide (ADSNKTRIDEANQRATKML) | approximately 40%
